These results are taken from patent US20240199601A1, “QUINONE COMPOUND AND PHARMACEUTICAL USE THEREOF” (NANJING SHUPENG LIFE SCIENCE CO., LTD., priority 2021, published 2024).

Assay [1] deals with AMPK. Briefly: AMPK phosphorylation level in a variety of cells. The class given is cell-based. As to conditions: 100 nM.
Assay [2] has as its system oxaliplatin-induced hyperalgesia. Briefly: Oxaliplatin chemotherapy pain model. The format is in vivo, C57LB6 mice. As to conditions: 40 mg/kg by gavage, oxaliplatin 3 mg/kg i.p., mice, Von Frey. The procedure: A total of 30 10-week-old wild male C57LB6 mice were selected.
On DAY 0, the mice were allowed to adapt to the environment for 7 days first, basic mechanical pain thresholds were detected and were basically about 1-1.4 g, and a total of 30 mice were used in this test without abnormal mice.
On DAYS 1-5, the mice were randomly divided into 3 groups including a blank control group (n=10), a model control group (n=10) and an SP3101 group (40 mg/kg, n=10). The mice in the SP3101 group were administrated with an SP3101 aqueous solution by gavage, the mice in the model control group were administrated with double distilled water by gavage, and the mice in the model control group and the SP3101 group were administrated with oxaliplatin (3 mg/kg) by intraperitoneal injection 0.5 hour later. The same operations were continuously performed for 5 days. On DAY 5, the pain thresholds were detected by using Von Frey fibrils.
On DAYS 6-10, the mice were only administered with SP3101 and water by gavage.
On DAYS 11-15, the operations on DAYS 1-5 were repeated, and on DAY 11, the pain thresholds were detected by using Von Frey fibrils.
On DAYS 16-20, the mice were only observed, and on DAY 16 and DAY 20, the mechanical pain thresholds were detected.

Assay [3] deals with chronic constriction injury (CCI) model. Briefly: Neuropathic pain, CCI model of the sciatic nerve, Von Frey. The class given is in vivo, B6 mice. As to conditions: 40 mg/kg by gavage, 1.5, 24 and 48 hours after administration, CCI mice, p<0.01. The text has this:
A CCI model was used for realizing neuropathic pain. 6- to 8-week-old B6 mice were anesthetized, shaved from the roots of the left legs to parts about 1-2 mm higher than the horizontal lines of the tail root bones, and cut horizontally to obtain small wounds. Muscles were bluntly separated by hemostatic forceps, the sciatic nerves were found and picked out with elbow tweezers, and 4-0 chromium-containing catgut sutures soaked in sterile normal saline in advance were picked out with another elbow tweezer. Three catgut sutures were penetrated through the sciatic nerve of each mouse and ligatured in an upper part, a middle part and a lower part at a distance of 1 mm, respectively at an appropriate intensity enabling surrounding muscles to have small and transient twitches. […]
On day 7 after surgery, mechanical pain thresholds of the mice were detected by using Von Frey fibrils. […] Then, the mice were stimulated again at an adjacent lower intensity, and the intensity interval of first positive responses and negative responses was recorded. […]
The test mice were divided into three groups: an unmolded group, a molded solvent group and a molded administration group. 0.5% methylcellulose was used as a solvent, SP3101 was used as a drug and administered at a dose of 40 mg/kg according to the body weight each time, and the pain thresholds were detected 1.5, 24, 48 and 72 hours after administration.

Assay [4] has as its system movement of the mice in an open field. Briefly: Sedation test, open field test (OFT). The format is in vivo, B6 mice. As to conditions: single intraperitoneal injection 20 or 50 mg/kg, 2 hours after administration. As for the experimental part:
A total of 15 12-week-old male B6 mice were selected and allowed to adapt to the environment for three days. The mice were randomly divided into 3 groups including: (1) a blank control group (n=5), (2) a low-dose SP3101 group at a dose of 20 mg/kg (n=5) and (3) a high-dose SP3101 group at a dose of 50 mg/kg (n=5). The mice were administered by intraperitoneal injection at a single dose according to the groups, where the mice in the blank control group were administered with an equal volume of normal saline by intraperitoneal injection. 2 hours after the administration, the mice were traced by a video tracking and detection system in an open field test (OFT), followed by behavioral evaluation.

The subject of assay [5] is cisplatin-induced hyperalgesia. The assay is described as follows: Cisplatin chemotherapy pain model. The class given is in vivo, B6 mice. As to conditions: 40 mg/kg/day by gavage, cisplatin 2.3 mg/kg/day i.p., mice, Von Frey 0.4 g and 1.0 g. An excerpt:
20 12-week-old male B6 mice were selected and allowed to adapt to the environment for three days.
On DAY 1, basic mechanical pain thresholds were detected by using Von Frey fibrils, the mice with abnormal pain thresholds were abandoned (no abnormal mice were found in this batch), and the pain thresholds were basically about 1.4-2.0 g. According to the basic pain thresholds, a pain threshold of 0.4 g was used in this test, and a pain threshold of 1.0 g was used in subsequent detection Behaviors such as foot lifting and foot licking were identified as positive responses.
On DAYS 1-5, after the basic mechanical pain thresholds were detected, the mice were randomly divided into the following groups: (1) a model control group (n=10) and (2) an SP3101 group (n=10) administered by gavage at a dose of 40 mg/kg/day, where the mice in the model control group were administered with double distilled water by gavage, and the mice in the two groups were administered with cisplatin prepared with normal saline (2.3 mg/kg/day) by intraperitoneal injection 0.5 hour later.
On DAYS 6-10, the mice were only administered with SP3101 and water by gavage, and on DAY 7, the mechanical pain thresholds were detected.
On DAYS 11-15, the operations on DAYS 1-5 were repeated, and on DAY 15, the mechanical pain thresholds were detected. […]

For assay [6], the system named is inflammatory pain model with AMPK inhibited. The assay is described as follows: Long-acting analgesic mechanism: CFA pain model with AMPK inhibitor compound c. The class given is in vivo, SD rats. As to conditions: compound c (Dorsomorphin) into caudal vein half an hour before oral SP3101 20 mg/kg, rats. As for the experimental part: Similar to the modeling method in Activity Test 1, 100 uL of a complete Freund's adjuvant was injected into the soles of the left feet of SD rats with a body weight of 200-250 g, mechanical pain thresholds of the left feet were detected by an ALMEMO2490 data collector 24 hours later, and the rats with a pain threshold of greater than 15 were abandoned. On the second day of modeling, 100 μL of a compound c as an AMPK inhibitor (Dorsomorphin, CAS No.866405-64-3, CC, 0.4 mg/ml) was injected into the caudal vein of each rat, the rats were orally administered with SP3101 (20 mg/kg) half an hour later, and the pain thresholds were detected after 1.5 hours and 24 hours, respectively.

Regarding `O=C1C(=O)c2nc(O)cc(C(=O)O)c2-c2[nH]ccc21` [SP3101, 4,5-dioxo-4,5-dihydro-1H-pyrrolo[2,3-f]quinone-7-hydroxy-9-carboxylic acid], in assay [1], the “phosphorylation level of the AMPK” value is listed as “significantly up-regulate”. The “prevention of oxaliplatin-induced hyperalgesia” value in assay [2] is given as “obviously prevent oxaliplatin-induced hyperalgesia”. Further, the “analgesic effect (Von Frey mechanical pain threshold)” value in assay [3] is recorded as “obvious analgesic effect”. Further, the “movement of the mice in an open field (sedative effect)” value in assay [4] is on record as “obviously reduces movement of the mice in an open field”. Also, the “alleviation of cisplatin-induced hyperalgesia” value in assay [5] is “obvious effect of alleviating”. Moreover, in assay [6], the “long-acting (24 hours) analgesic effect while AMPK is inhibited” value is recorded as “eliminated” and the “short-acting (1.5 hours) analgesic effect while AMPK is inhibited” value was “not affected”.
